ChEMBL document CHEMBL1201862, “PubChem BioAssay data set” (2004)
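Grown in 96-well plates, cells were treated for 48 hours with each compound at five concentrations. Insufficient inhibition: endpoint recorded as highest concentration tested. GI50: concentration for 50% inhibition of growth.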 Activity calls are given as the source filed them. No stated cut-off is given here; in the data, active = GI50 up to about 1.1 µM and inactive = higher.

Experiments:
Assay in all cases: DTP human tumour cell line panel, 48 h
RXF 393 = tested on: RXF 393
SK-MEL-28 = tested on: SK-MEL-28
SK-MEL-5 = tested on: SK-MEL-5
M14 = tested on: M14
UACC-257 = tested on: UACC-257
DU-145 = tested on: DU-145
OVCAR-8 = tested on: OVCAR-8
OVCAR-3 = tested on: OVCAR-3
NCI-H522 = tested on: NCI-H522
NCI/ADR-RES = tested on: NCI/ADR-RES
HT-29 = tested on: HT-29
K562 = tested on: K562
COLO 205 = tested on: COLO 205
KM12 = tested on: KM12
TK-10 = tested on: TK-10
SR = tested on: SR
NCI-H23 = tested on: NCI-H23
OVCAR-4 = tested on: OVCAR-4
A549 = tested on: A549
LOX IMVI = tested on: LOX IMVI

Measured: GI50

Cc1c(CN2CCOCC2)c(CN2CCOCC2)c(C)n1-c1ccc(Cl)cn1
inactive: RXF 393 > 100 µM | SK-MEL-28 > 100 µM | SK-MEL-5 > 100 µM | M14 > 100 µM | UACC-257 > 100 µM | DU-145 > 100 µM | OVCAR-8 > 100 µM | OVCAR-3 > 100 µM | NCI-H522 > 100 µM | NCI/ADR-RES > 100 µM | HT-29 > 100 µM | K562 > 100 µM | COLO 205 > 100 µM | KM12 > 100 µM | TK-10 > 100 µM | SR > 100 µM | NCI-H23 > 100 µM | OVCAR-4 > 100 µM | A549 > 100 µM

Cc1ccc(-c2[nH]c(=O)n(C3OC(CO)C(O)C(O)C3O)c(=O)c2C#N)cc1 (stereo not drawn)
inactive: RXF 393 > 100 µM | SK-MEL-28 > 100 µM | SK-MEL-5 > 100 µM | M14 > 100 µM | UACC-257 > 100 µM | DU-145 > 100 µM | OVCAR-8 > 100 µM | OVCAR-3 > 100 µM | NCI-H522 > 100 µM | NCI/ADR-RES > 100 µM | HT-29 > 100 µM | K562 > 100 µM | COLO 205 > 100 µM | KM12 > 100 µM | TK-10 > 100 µM | SR 95.3 µM | NCI-H23 > 100 µM | OVCAR-4 > 100 µM | A549 > 100 µM

CC[C@H]1OC([C@H](O)C/C=C\C#C[Si](C)(C)C)C/C=C\C[C@H]1O[Si](C)(C)C(C)(C)C (stereo partly drawn)
inactive: RXF 393 > 100 µM | SK-MEL-28 > 100 µM | SK-MEL-5 > 100 µM | M14 > 100 µM | DU-145 > 100 µM | OVCAR-8 > 100 µM | OVCAR-3 > 100 µM | NCI-H522 40.9 µM | NCI/ADR-RES > 100 µM | HT-29 > 100 µM | K562 > 100 µM | COLO 205 > 100 µM | KM12 > 100 µM | SR > 100 µM | NCI-H23 > 100 µM | OVCAR-4 > 100 µM | LOX IMVI 19.4 µM | A549 > 100 µM

C[C@]12[C@@H]3CC[C@H]1[C@@H](O)C(=O)N2CC3
inactive: RXF 393 > 100 µM | SK-MEL-28 > 100 µM | SK-MEL-5 > 100 µM | M14 > 100 µM | UACC-257 > 100 µM | DU-145 > 100 µM | OVCAR-8 > 100 µM | NCI-H522 > 100 µM | NCI/ADR-RES > 100 µM | HT-29 > 100 µM | K562 > 100 µM | COLO 205 > 100 µM | KM12 > 100 µM | TK-10 > 100 µM | SR > 100 µM | NCI-H23 > 100 µM | OVCAR-4 > 100 µM | LOX IMVI > 100 µM | A549 > 100 µM

N#C[C@@H](c1ccccn1)c1ncccc1[N+](=O)[O-]
inactive: RXF 393 > 100 µM | SK-MEL-28 > 100 µM | SK-MEL-5 90.2 µM | M14 > 100 µM | DU-145 > 100 µM | OVCAR-8 > 100 µM | OVCAR-3 > 100 µM | NCI-H522 > 100 µM | NCI/ADR-RES > 100 µM | HT-29 > 100 µM | K562 > 100 µM | COLO 205 > 100 µM | SR > 100 µM | NCI-H23 > 100 µM | OVCAR-4 > 100 µM | LOX IMVI > 100 µM | A549 > 100 µM

FC(F)(Sc1nc2ccccc2[nH]1)c1nc2ccccc2o1
inactive: RXF 393 > 100 µM | SK-MEL-28 > 100 µM | SK-MEL-5 > 100 µM | M14 > 100 µM | UACC-257 > 100 µM | DU-145 > 100 µM | OVCAR-8 43.1 µM | OVCAR-3 > 100 µM | NCI-H522 15.8 µM | NCI/ADR-RES > 100 µM | HT-29 > 100 µM | K562 > 100 µM | COLO 205 > 100 µM | KM12 > 100 µM | TK-10 > 100 µM | SR > 100 µM | NCI-H23 > 100 µM | OVCAR-4 > 100 µM | A549 > 100 µM

Sc1ncc(-c2cncc(-c3cnc(S)nc3)n2)cn1
inactive: RXF 393 > 100 µM | SK-MEL-28 > 100 µM | SK-MEL-5 > 100 µM | M14 > 100 µM | UACC-257 > 100 µM | DU-145 > 100 µM | OVCAR-8 > 100 µM | OVCAR-3 > 100 µM | NCI-H522 > 100 µM | NCI/ADR-RES > 100 µM | HT-29 > 100 µM | K562 > 100 µM | COLO 205 > 100 µM | KM12 > 100 µM | TK-10 > 100 µM | SR 85.1 µM | NCI-H23 > 100 µM | OVCAR-4 > 100 µM | A549 > 100 µM

CSc1cc(Cl)c(C)cc1S(=O)(=O)NC(=O)NNc1ccccn1
inactive: RXF 393 > 100 µM | SK-MEL-28 > 100 µM | SK-MEL-5 > 100 µM | M14 > 100 µM | DU-145 > 100 µM | OVCAR-8 > 100 µM | OVCAR-3 > 100 µM | NCI-H522 > 100 µM | NCI/ADR-RES > 100 µM | HT-29 > 100 µM | K562 > 100 µM | COLO 205 > 100 µM | KM12 > 100 µM | SR > 100 µM | OVCAR-4 > 100 µM | LOX IMVI > 100 µM | A549 > 100 µM

CSC1=Nc2ccccc2-c2nc(-c3ccccc3)cc(-c3ccccc3)c2C1
inactive: RXF 393 6.5 µM | SK-MEL-28 35.6 µM | SK-MEL-5 16.6 µM | M14 13.9 µM | UACC-257 28.1 µM | DU-145 60.4 µM | OVCAR-8 9.98 µM | NCI-H522 4.7 µM | NCI/ADR-RES 19.7 µM | HT-29 30.5 µM | K562 30.8 µM | COLO 205 55 µM | KM12 24.9 µM | TK-10 16.2 µM | SR 31.3 µM | NCI-H23 12.4 µM | OVCAR-4 8.93 µM | LOX IMVI 23.2 µM | A549 16 µM

O=C1/C(=C/c2cccs2)N=C(c2ccccc2)N1c1nc2ccccc2s1
inactive: RXF 393 33.3 µM | SK-MEL-28 > 100 µM | SK-MEL-5 > 100 µM | M14 > 100 µM | UACC-257 > 100 µM | DU-145 67.3 µM | OVCAR-8 62.1 µM | OVCAR-3 > 100 µM | NCI-H522 4.14 µM | NCI/ADR-RES 64.4 µM | HT-29 36.3 µM | K562 47.5 µM | KM12 > 100 µM | TK-10 > 100 µM | SR 33.6 µM | NCI-H23 > 100 µM | LOX IMVI > 100 µM | A549 41.5 µM

COC1Cc2c(C)c(OC(C)=O)c3cccnc3c2O1 (stereo not drawn)
inactive: RXF 393 14.9 µM | SK-MEL-28 24.7 µM | SK-MEL-5 15.3 µM | M14 14.5 µM | UACC-257 16 µM | DU-145 17.3 µM | OVCAR-8 15.1 µM | OVCAR-3 14.5 µM | NCI-H522 2.75 µM | NCI/ADR-RES 17.6 µM | HT-29 43.8 µM | K562 22.2 µM | COLO 205 91.8 µM | KM12 36.6 µM | TK-10 > 100 µM | SR 15.6 µM | NCI-H23 20.6 µM | OVCAR-4 16 µM | A549 17.3 µM
